For 18 compounds, IC50 results are on record in patent US20090298820A1, “3-SUBSTITUTED-1H-PYRROLO[2,3-B]PYRIDINE AND 3-SUBSTITUTED-1H-PYRROLO[3,2-B]PYRIDINE COMPOUNDS, THEIR USE AS MTOR KINASE AND PI3 KINASE INHIBITORS, AND THEIR SYNTHESES” (Wyeth, priority 2008, published 2009).

Structures are written as SMILES. Where two headings read alike, the source gives them in different places.

What all share (type): biochemical
Experiment [1] deals with PI3Kα (Homo sapiens, UniProt P42336). The experiment in a line: PI3K-alpha fluorescence polarization assay. Conditions: read-out: PI3Kα Median IC50.
PI3Kα, sequence (P42336 whole entry, species assumed): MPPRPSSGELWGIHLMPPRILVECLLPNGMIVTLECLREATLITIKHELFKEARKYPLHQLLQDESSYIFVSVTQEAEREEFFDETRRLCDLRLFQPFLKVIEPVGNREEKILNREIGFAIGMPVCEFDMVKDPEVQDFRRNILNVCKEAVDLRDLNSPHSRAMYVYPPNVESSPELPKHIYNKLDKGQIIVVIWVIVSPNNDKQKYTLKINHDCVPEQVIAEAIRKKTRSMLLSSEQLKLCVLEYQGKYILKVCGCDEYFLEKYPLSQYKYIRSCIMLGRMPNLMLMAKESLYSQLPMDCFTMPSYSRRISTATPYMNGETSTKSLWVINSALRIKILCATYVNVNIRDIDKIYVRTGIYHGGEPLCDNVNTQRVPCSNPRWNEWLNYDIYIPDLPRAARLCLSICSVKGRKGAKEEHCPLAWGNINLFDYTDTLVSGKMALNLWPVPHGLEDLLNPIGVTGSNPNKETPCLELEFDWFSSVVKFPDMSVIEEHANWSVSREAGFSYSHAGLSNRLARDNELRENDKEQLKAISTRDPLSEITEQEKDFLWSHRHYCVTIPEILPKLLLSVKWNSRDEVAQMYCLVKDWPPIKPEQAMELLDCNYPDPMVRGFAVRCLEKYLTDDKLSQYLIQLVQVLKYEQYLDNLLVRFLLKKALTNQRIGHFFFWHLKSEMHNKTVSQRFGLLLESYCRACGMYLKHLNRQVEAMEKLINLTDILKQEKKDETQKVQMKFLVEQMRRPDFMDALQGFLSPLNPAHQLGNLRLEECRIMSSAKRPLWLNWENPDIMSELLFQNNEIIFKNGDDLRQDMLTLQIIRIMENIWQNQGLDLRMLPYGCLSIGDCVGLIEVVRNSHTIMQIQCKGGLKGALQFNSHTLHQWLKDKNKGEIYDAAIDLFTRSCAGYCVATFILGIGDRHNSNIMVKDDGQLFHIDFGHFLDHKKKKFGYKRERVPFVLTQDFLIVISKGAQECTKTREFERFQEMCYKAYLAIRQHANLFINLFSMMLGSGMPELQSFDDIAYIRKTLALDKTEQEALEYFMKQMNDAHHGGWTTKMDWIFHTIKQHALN
PI3Kα, sequence (P27986 whole entry partner, species assumed): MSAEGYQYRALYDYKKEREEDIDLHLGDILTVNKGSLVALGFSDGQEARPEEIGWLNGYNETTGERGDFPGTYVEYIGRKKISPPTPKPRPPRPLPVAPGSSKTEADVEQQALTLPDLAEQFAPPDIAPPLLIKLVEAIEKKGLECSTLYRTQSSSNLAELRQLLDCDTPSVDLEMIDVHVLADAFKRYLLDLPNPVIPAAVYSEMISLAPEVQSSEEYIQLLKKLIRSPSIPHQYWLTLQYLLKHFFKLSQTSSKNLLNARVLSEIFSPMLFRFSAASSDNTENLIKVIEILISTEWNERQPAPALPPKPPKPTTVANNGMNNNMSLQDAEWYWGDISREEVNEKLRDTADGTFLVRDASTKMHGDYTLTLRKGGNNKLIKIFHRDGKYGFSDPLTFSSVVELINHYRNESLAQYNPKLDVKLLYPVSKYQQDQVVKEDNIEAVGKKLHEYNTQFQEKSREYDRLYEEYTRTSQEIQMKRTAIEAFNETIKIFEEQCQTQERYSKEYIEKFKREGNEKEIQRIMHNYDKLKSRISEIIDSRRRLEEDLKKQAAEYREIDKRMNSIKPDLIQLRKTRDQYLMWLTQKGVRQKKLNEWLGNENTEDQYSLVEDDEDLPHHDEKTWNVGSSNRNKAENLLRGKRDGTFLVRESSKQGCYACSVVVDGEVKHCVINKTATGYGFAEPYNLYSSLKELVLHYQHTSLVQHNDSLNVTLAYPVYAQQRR
Experiment [2] has as its target mTOR (Homo sapiens, UniProt P42345). Put plainly: mTOR enzyme assay (DELFIA format, His6-S6K substrate).
In experiment [3] the target is PI3Kγ (Homo sapiens, UniProt P48736). The experiment in a line: PI3K-gamma fluorescence polarization assay. As to conditions: read-out: PI3Kγ Median IC50.
PI3Kγ, sequence (P48736 whole entry, species assumed): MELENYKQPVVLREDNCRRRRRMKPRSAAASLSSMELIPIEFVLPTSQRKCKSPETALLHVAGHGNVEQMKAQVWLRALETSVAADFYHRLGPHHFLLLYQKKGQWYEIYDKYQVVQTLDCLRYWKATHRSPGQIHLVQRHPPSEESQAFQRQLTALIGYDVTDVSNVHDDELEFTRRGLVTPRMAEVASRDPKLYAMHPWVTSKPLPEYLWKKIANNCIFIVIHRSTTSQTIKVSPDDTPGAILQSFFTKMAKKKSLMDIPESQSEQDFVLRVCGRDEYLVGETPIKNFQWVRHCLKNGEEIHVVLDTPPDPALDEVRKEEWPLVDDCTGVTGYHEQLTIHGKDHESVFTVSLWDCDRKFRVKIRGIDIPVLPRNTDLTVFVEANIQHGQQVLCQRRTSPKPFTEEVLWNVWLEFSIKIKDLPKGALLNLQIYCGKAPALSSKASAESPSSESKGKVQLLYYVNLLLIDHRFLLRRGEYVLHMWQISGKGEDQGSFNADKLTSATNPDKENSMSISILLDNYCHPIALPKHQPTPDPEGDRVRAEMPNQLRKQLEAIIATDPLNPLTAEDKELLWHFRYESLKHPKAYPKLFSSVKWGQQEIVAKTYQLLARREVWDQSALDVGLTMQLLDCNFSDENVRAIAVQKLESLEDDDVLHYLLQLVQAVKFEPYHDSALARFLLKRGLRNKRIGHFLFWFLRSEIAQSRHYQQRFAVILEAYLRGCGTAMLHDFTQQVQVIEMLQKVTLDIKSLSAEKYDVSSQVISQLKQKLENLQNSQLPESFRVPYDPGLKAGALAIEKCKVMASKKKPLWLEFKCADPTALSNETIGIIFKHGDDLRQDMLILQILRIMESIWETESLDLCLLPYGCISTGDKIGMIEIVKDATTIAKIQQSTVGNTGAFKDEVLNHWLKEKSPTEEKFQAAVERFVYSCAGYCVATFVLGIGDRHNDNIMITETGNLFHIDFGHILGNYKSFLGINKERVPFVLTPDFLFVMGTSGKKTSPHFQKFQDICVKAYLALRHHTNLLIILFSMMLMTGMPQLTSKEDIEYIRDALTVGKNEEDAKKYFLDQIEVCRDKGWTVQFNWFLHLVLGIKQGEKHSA
Setting [4] is: read-out: mTOR Kinase Median IC50.

On to `CN(Cc1ccccc1)C(=O)C1CCN(c2ccnc3c2c(C=C2Oc4ccc(NC(=O)Nc5cccnc5)cc4C2=O)cn3C)CC1` [Compound 215, N-benzyl-N-methyl-1-[1-methyl-3-({3-oxo-5-[(pyridin-3-ylcarbamoyl)amino]-1-benzofuran-2(3H)-ylidene}methyl)-1H-pyrrolo[2,3-b]pyridin-4-yl]piperidine-4-carboxamide], for which the IC50 in experiment [1] was greater than 10000 nM; in experiment [2] (setting [4]) it was 102 nM; in experiment [3] it was 9280 nM.
Taken in the same sequence, the figures for `CN(C)C(=O)C1CCN(c2ccnc3c2c(/C=C2\Oc4ccc(NC(=O)Nc5ccc(CN6CCCCC6)cc5)cc4C2=O)cn3C)CC1` [Compound 216, N,N-dimethyl-1-(1-methyl-3-{(Z)-[3-oxo-5-({[4-(piperidin-1-ylmethyl)phenyl]carbamoyl}amino)-1-benzofuran-2(3H)-ylidene]methyl}-1H-pyrrolo[2,3-b]pyridin-4-yl)piperidine-4-carboxamide] were 613 nM, 30 nM and 231 nM.
`CN(C)C(=O)C1CCN(c2ccnc3c2c(/C=C2\Oc4ccc(NC(=O)Nc5ccc(N6CCOCC6)nc5)cc4C2=O)cn3C)CC1` [Compound 217, N,N-dimethyl-1-(1-methyl-3-{(Z)-[5-{[(6-morpholin-4-ylpyridin-3-yl)carbamoyl]amino}-3-oxo-1-benzofuran-2(3H)-ylidene]methyl}-1H-pyrrolo[2,3-b]pyridin-4-yl)piperidine-4-carboxamide]: the IC50 in experiment [1] was 4010 nM; in experiment [2] (setting [4]), 97 nM; in experiment [3], greater than 10000 nM.
Take `CN1CCN(c2ccc(NC(=O)Nc3ccc4c(c3)C(=O)/C(=C/c3cn(C)c5nccc(N6CCC(C(=O)N(C)C)CC6)c35)O4)cc2)CC1` [Compound 218, N,N-dimethyl-1-(1-methyl-3-{(Z)-[5-({[4-(4-methylpiperazin-1-yl)phenyl]carbamoyl}amino)-3-oxo-1-benzofuran-2(3H)-ylidene]methyl}-1H-pyrrolo[2,3-b]pyridin-4-yl)piperidine-4-carboxamide]: the IC50 in experiment [1] is 994 nM; in experiment [2] (setting [4]) it was 445 nM; in experiment [3], greater than 10000 nM.
With `Cn1cc(/C=C2\Oc3ccc(NC(=O)Nc4ccc(N5CCOCC5)nc4)cc3C2=O)c2c(N3CC4CCC(C3)O4)ccnc21` [Compound 219, 1-[(2Z)-2-{[1-methyl-4-(8-oxa-3-azabicyclo[3.2.1]oct-3-yl)-1H-pyrrolo[2,3-b]pyridin-3-yl]methylidene}-3-oxo-2,3-dihydro-1-benzofuran-5-yl]-3-(6-morpholin-4-ylpyridin-3-yl)urea], the values for the IC50 in experiment [1], in experiment [2] (setting [4]) and in experiment [3] were 2220 nM, 29 nM and greater than 10000 nM, respectively.
Consider `CN(C)CCOc1ccc(NC(=O)Nc2ccc3c(c2)C(=O)/C(=C/c2cn(C)c4nccc(N5CC6CCC(C5)O6)c24)O3)cc1` [Compound 220, 1-{4-[2-(dimethylamino)ethoxy]phenyl}-3-[(2Z)-2-{[1-methyl-4-(8-oxa-3-azabicyclo[3.2.1]oct-3-yl)-1H-pyrrolo[2,3-b]pyridin-3-yl]methylidene}-3-oxo-2,3-dihydro-1-benzofuran-5-yl]urea], for which the IC50 is 915 nM in experiment [1], 62.5 nM in experiment [2] (setting [4]) and greater than 10000 nM in experiment [3].
Regarding `CN1CCN(NC(=O)Nc2ccc3c(c2)C(=O)/C(=C/c2cn(C)c4nccc(N5CC6CCC(C5)O6)c24)O3)CC1` [Compound 221, 1-[(2Z)-2-{[1-methyl-4-(8-oxa-3-azabicyclo[3.2.1]oct-3-yl)-1H-pyrrolo[2,3-b]pyridin-3-yl]methylidene}-3-oxo-2,3-dihydro-1-benzofuran-5-yl]-3-(4-methylpiperazin-1-yl)urea], the figures for the IC50 in experiment [1], in experiment [2] (setting [4]) and in experiment [3] were 221 nM, 175 nM and 1010 nM, respectively.
Regarding `Cc1cnccc1CN(C)C(=O)C1CCN(c2ccnc3c2c(/C=C2\Oc4ccc(NC(=O)Nc5cccnc5)cc4C2=O)cn3C)CC1` [Compound 222, N-methyl-1-{1-methyl-3-[(Z)-{3-oxo-5-[(pyridin-3-ylcarbamoyl)amino]-1-benzofuran-2(3H)-ylidene}methyl]-1H-pyrrolo[2,3-b]pyridin-4-yl}-N-[(3-methylpyridin-4-yl)methyl]piperidine-4-carboxamide], the IC50 in experiment [1] came to 2830 nM; in experiment [2] (setting [4]) it was 34 nM; in experiment [3], 2540 nM.
Regarding `Cc1cc(CN(C)C(=O)C2CCN(c3ccnc4c3c(/C=C3\Oc5ccc(NC(=O)Nc6cccnc6)cc5C3=O)cn4C)CC2)ccn1` [Compound 223, N-methyl-1-{1-methyl-3-[(Z)-{3-oxo-5-[(pyridin-3-ylcarbamoyl)amino]-1-benzofuran-2(3H)-ylidene}methyl]-1H-pyrrolo[2,3-b]pyridin-4-yl}-N-[(2-methylpyridin-4-yl)methyl]piperidine-4-carboxamide], the IC50 is 1850 nM in experiment [1], 23 nM in experiment [2] (setting [4]) and 1270 nM in experiment [3].
Consider `COc1ccnc(CN(C)C(=O)C2CCN(c3ccnc4c3c(/C=C3\Oc5ccc(NC(=O)Nc6cccnc6)cc5C3=O)cn4C)CC2)c1` [Compound 224, N-[(4-methoxypyridin-2-yl)methyl]-N-methyl-1-{1-methyl-3-[(Z)-{3-oxo-5-[(pyridin-3-ylcarbamoyl)amino]-1-benzofuran-2(3H)-ylidene}methyl]-1H-pyrrolo[2,3-b]pyridin-4-yl}piperidine-4-carboxamide], for which the IC50 in experiment [1] was found to be 2370 nM; in experiment [2] (setting [4]), 23.5 nM; in experiment [3], 1420 nM.
As to `Cc1cccc(CN(C)C(=O)C2CCN(c3ccnc4c3c(/C=C3\Oc5ccc(NC(=O)Nc6cccnc6)cc5C3=O)cn4C)CC2)n1` [Compound 225, N-methyl-1-{1-methyl-3-[(Z)-{3-oxo-5-[(pyridin-3-ylcarbamoyl)amino]-1-benzofuran-2(3H)-ylidene}methyl]-1H-pyrrolo[2,3-b]pyridin-4-yl}-N-[(6-methylpyridin-2-yl)methyl]piperidine-4-carboxamide], the values for the IC50 in experiment [1], in experiment [2] and in experiment [3] were 2320 nM, 49 nM and 1920 nM, respectively.
`C#CCN(C)C(=O)C1CCN(c2ccnc3c2c(/C=C2\Oc4ccc(NC(=O)Nc5cccnc5)cc4C2=O)cn3C)CC1` [Compound 226, N-methyl-1-{1-methyl-3-[(Z)-{3-oxo-5-[(pyridin-3-ylcarbamoyl)amino]-1-benzofuran-2(3H)-ylidene}methyl]-1H-pyrrolo[2,3-b]pyridin-4-yl}-N-prop-2-yn-1-ylpiperidine-4-carboxamide]: the IC50 in experiment [1] was 921 nM; in experiment [2] (setting [4]), 22.5 nM; in experiment [3] it was 1140 nM.
Regarding `CN(C(=O)C1CCN(c2ccnc3c2c(/C=C2\Oc4ccc(NC(=O)Nc5cccnc5)cc4C2=O)cn3C)CC1)C1CCCC1` [Compound 227, N-cyclopentyl-N-methyl-1-{1-methyl-3-[(Z)-{3-oxo-5-[(pyridin-3-ylcarbamoyl)amino]-1-benzofuran-2(3H)-ylidene}methyl]-1H-pyrrolo[2,3-b]pyridin-4-yl}piperidine-4-carboxamide], the IC50 in experiment [1] was determined as 2720 nM; in experiment [2] (setting [4]), 165 nM; in experiment [3] it was 1110 nM.
For the compound `CN1CCN(NC(=O)Nc2ccc3c(c2)C(=O)/C(=C/c2cn(C)c4nccc(N5CCC(C(=O)N(C)C)CC5)c24)O3)CC1` [Compound 228, N,N-dimethyl-1-(1-methyl-3-{(Z)-[5-{[(4-methylpiperazin-1-yl)carbamoyl]amino}-3-oxo-1-benzofuran-2(3H)-ylidene]methyl}-1H-pyrrolo[2,3-b]pyridin-4-yl)piperidine-4-carboxamide], the IC50 in experiment [1] stood at 415 nM; in experiment [2] (setting [4]) it was 170 nM; in experiment [3] it was 2750 nM.
`CN1CCN(c2ccc(NC(=O)Nc3ccc4c(c3)C(=O)/C(=C/c3cn(C)c5nccc(N6CC7CCC(C6)O7)c35)O4)cc2)CC1` [Compound 229, 1-[(2Z)-2-{[1-methyl-4-(8-oxa-3-azabicyclo[3.2.1]oct-3-yl)-1H-pyrrolo[2,3-b]pyridin-3-yl]methylidene}-3-oxo-2,3-dihydro-1-benzofuran-5-yl]-3-[4-(4-methylpiperazin-1-yl)phenyl]urea]: the IC50 in experiment [1] amounted to 2300 nM; in experiment [2] (setting [4]), 280 nM; in experiment [3] it was 6670 nM.
Take `CN1CCN(c2ccc(NC(=O)Nc3ccc4c(c3)C(=O)/C(=C/c3cn(C)c5nccc(N6CCC(C(=O)N(C)C)CC6)c35)O4)cn2)CC1` [Compound 230, N,N-dimethyl-1-(1-methyl-3-{(Z)-[5-({[6-(4-methylpiperazin-1-yl)pyridin-3-yl]carbamoyl}amino)-3-oxo-1-benzofuran-2(3H)-ylidene]methyl}-1H-pyrrolo[2,3-b]pyridin-4-yl)piperidine-4-carboxamide]: the IC50 in experiment [1] was 10900 nM; in experiment [2] (setting [4]), 74 nM; in experiment [3], greater than 10000 nM.
With `CN1CCN(c2ccc(NC(=O)Nc3ccc4c(c3)C(=O)/C(=C/c3cn(C)c5nccc(N6CC7CCC(C6)O7)c35)O4)cn2)CC1` [Compound 231, 1-[(2Z)-2-{[1-methyl-4-(8-oxa-3-azabicyclo[3.2.1]oct-3-yl)-1H-pyrrolo[2,3-b]pyridin-3-yl]methylidene}-3-oxo-2,3-dihydro-1-benzofuran-5-yl]-3-[6-(4-methylpiperazin-1-yl)pyridin-3-yl]urea], the IC50 in experiment [1] was 703 nM; in experiment [2] (setting [4]), 31.5 nM; in experiment [3], greater than 10000 nM.
As to `Cn1cncc1CNC(=O)Nc1ccc2c(c1)C(=O)/C(=C/c1cn(C)c3nccc(N4CC5CCC(C4)O5)c13)O2` [Compound 232, 1-[(1-methyl-1H-imidazol-5-yl)methyl]-3-[(2Z)-2-{[1-methyl-4-(8-oxa-3-azabicyclo[3.2.1]oct-3-yl)-1H-pyrrolo[2,3-b]pyridin-3-yl]methylidene}-3-oxo-2,3-dihydro-1-benzofuran-5-yl]urea], the IC50 in experiment [1] was 1140 nM; in experiment [2] (setting [4]), 160 nM; in experiment [3], greater than 10000 nM.
